We go through six molecules from patent US5562922A, “Drug incorporating and release polymeric coating for bioprosthesis” (Cedars-Sinai Medical Center, priority 1995, dated 1996).

Data set [1] is described as follows: Water solubility (in words). In kind it is physicochemical.
Data set [2] can be described thus: In vitro drug release from polyurethane-coated stents, coils or films. The note with it: for initial release rate / release rate: release from polyurethane, Table 1A; for Total: total content.
Protocol: Drug incorporation into polyurethane-coated articles
Nitinol stents or stainless steel coils with surface area similar to nitinol stents were coated with Tecoflex 85A™ polyurethane to a thickness of about 50 microns in accordance with the manufacture's instructions for coating metal surfaces.
The drug loading procedure is carried out as follows: The desired compound is dissolved in a solution containing 3 parts ethanol and 1 part tetrahydrofuran (100 mg/ml for rhodamine B and 50 mg/ml for fluorescein dilaurate and forskolin).
When a hydrophilic compound such as hirulog was loaded in the polyurethane,the polyurethane was first loaded with sphingosine or any charged lipophilic molecule as described above. With this modification, the polyurethane will swell in organic solutions containing up to 10% water. The desired compound was then dissolved as 50 mg/ml in ethanol/tertrahydrofuran/water in a ratio of 65/25/1-20. The water content will vary according to the solubility of the desired compound in this solvent system.
After incubation, all stents, coils, and films were dried overnight at 40° C. at reduced pressure. To evaluate the ability of a charged lipid soluble drug to facilitate uptake and release of a water soluble compound, thin films containing 20 mg of polyurethane with or without 1 mg of sphingosine were produced by pour plating and drying overnight at 40° C. under reduced pressure. The films were then incubated in a solution of fluorescein disodium, a water soluble dye. After incubation, films were dried as described above.
After a 15 minute preincubation (wash step), stents, coils, or films were incubated for 2-3 days in 2 ml. of phosphate buffered saline (pH=7.4) or 5% bovine serum albumin in PBS at 37° C. in a shaking water bath. […] At the end of incubations, the polyurethane was dissolved in tertrahydrofuran and an aliquot analyzed to determine the quantity of compound remaining in the polymer. […] Solutions containing fluorescein dilaurate required addition of 200 μl of 10M sodium hydroxide to convert the fluorescein dilaurate into its colored form (release the two 16-carbon fatty acid dilaurate chains from the water soluble fluorescein molecule). Forskolin content was determined by scintillation counting.
On the set-up of data set [3]: species or system New Zealand white rabbits. The note with it: rabbit. The procedure: (§1) For these experiments, nitinol stents were coated with Tecoflex™, to a thickness of about 50-100 microns, and then incubated in a solution containing unlabelled and tritiated forskolin with a specific activity of 25 μCi/mg. Resulting stents contained approximately 1.5 mg. of forskolin in approximately 20 mg of 50-100 micron thick polymer matrix coating.
(§2) Instantaneous blood release rates were calculated by the following formula using the conservation of mass principle: [formula] where dM=change in mass, dT=change in time, M=mass, Q=flow, C1=upstream concentration, and C2=downstream concentration. Scintillation counts were then adjusted for measured background and efficiency. The amount of forskolin present was calculated by comparison of tissue activity to a 25 uCi/mg standard. For comparison of tissue and blood forskolin concentrations, blood levels were divided by specific gravity of rabbit blood (1.050 g/ml). Statistical analysis to assess differences between the multiple sites of the tissue samples was by one-way analysis of variances (ANOVA). If significant differences were found (p<0.05), pairwise comparisons were then performed using the t-test within ANOVA corrected for multiple comparisons (Bonferoni/Least Significant Difference tests).

The subject of data set [4] is carotid artery. Further details: species or system New Zealand white rabbits. The note with it: rabbit, in vivo. The procedure:
as §1, §2

Data set [5] relates to carotid artery. Briefly: Carotid artery flow after stent delivery. The class given is in vivo, New Zealand white rabbits. Particulars: 10.3±4.2 ml/min before. The procedure: as §1
Data set [6] concerns carotid artery. Briefly: Rabbit carotid crush injury, low flow thrombosis model. In kind it is in vivo, New Zealand white rabbits. From the text: To evaluate the thrombogenicity of polyurethane stent coatings, a rabbit carotid crush injury, low flow thrombosis model was developed. Briefly, New Zealand white rabbits (n=14) underwent anesthesia with ketamine and xylazine followed by surgical exposure of the right carotid and left femoral arteries. A 6 french sheath was placed in the left femoral artery and a 2.0 mm transit time flow probe (Transonics) was placed in the distal carotid artery. No anticoagulant was given. Repeated crush injury with a plastic coated clamp was performed at similar force for fifteen times over a one cm. distance usually producing a small decrement in flow rate. After 5 minutes, a bare or polyurethane coated nitinol stent was advanced to straddle the area of injury and balloon expanded. After a 15 minute equilibration period during which a 3.0 mm balloon occluder was placed proximal to the stent, the occluder was inflated to reduce flow to 4 ml/min. (40% of baseline). Continuous pressure monitoring via pressure transducer placed on line in the occluder inflation system was performed to ensure maintenance of consistent occlusion.
Continuous carotid artery flow and mean blood pressure were recorded by strip chart recorder. If the flow remained <0.5 ml/min, for 5 minutes, the artery was considered occluded and experiment terminated. […] After euthanasia, the artery was removed and cut longitudinally with a scalpel. The polyurethane coating was visually inspected for defects. Presence of white or red thrombus was also noted.

Data set [7] is described as follows: Uptake by polymer, elution from polymer and tissue retention compared with forskolin. The note with it: compared to forskolin.
Data set [8] in a line: Etretinate delivery to vessel wall from coated stent (similar model). The note with it: rabbit.
For data set [9], the system named is thrombosis on the catheter. Particulars: released from intravascular catheters; cited from earlier work.
For another data set, the system named is intimal hyperplasia. Particulars: polyvinyl alcohol based polymer beads, perivascular tissue, rats; cited from earlier work.
Setting [10] is: Film + SPH (sphingosine), n = 2, buffer not given.
Setting [11] is: Film without sphingosine, n = 2, buffer not given.

Entries after “also recorded” stand apart in the source; their conditions may differ.

For `CCCCCCCCCCCC(=O)Oc1ccc2c(c1)Oc1cc(OC(=O)CCCCCCCCCCC)ccc1C21OC(=O)c2ccccc21` [Fluorescein dilaurate, fluorescein dilaurate], the “water solubility” value in [1] was “insoluble in water”. Further, in data set [2] (Coil, 5% BSA, n = 1), the “Release Rate Day 1” value came out at 3.4 µg/h and the “Release Rate Day 2” value worked out at 2.3 µg/h. In data set [2] (Film, 5% BSA, n = 2), the “Release Rate Day 1” value stood at 4.6 µg/h and the “Release Rate Day 2” value came to 3.7 µg/h. Further, the “initial release rate / release rate” value in [2] is “required 5% albumin to promote release”.
As for `C=C[C@@]1(C)CC(=O)[C@]2(O)[C@@]3(C)[C@@H](O)CCC(C)(C)[C@@H]3[C@H](O)[C@H](OC(C)=O)[C@@]2(C)O1` [Forskolin], the “in vivo release rate” value in data set [3] is 7.0 µg/min. In data set [3] (in vivo), the “calculated instantaneous release rate into the bloodstream, initial” value is reported as 6900 ng/min; the “calculated instantaneous release rate into the bloodstream, over four hours” value is 700 ng/min; the “peak forskolin blood level” value came out at 140 ng/mL. In addition, the “immediate forskolin blood level” value in data set [3] (in vivo, 0 min) came to 57 ng/mL. In addition, the blood level in data set [3] (in vivo, 24 h) came out at 68 ± 18 ng/mL. Besides, in the data set with carotid artery [4], the “concentration in adventitia overlying the stent relative to blood” value was determined as 360 times, the “concentration in adventitia overlying the stent relative to contralateral artery” value is 305 times, the “concentration in media overlying the stent relative to blood” value is 450 times and the “concentration in media overlying the stent relative to contralateral artery” value is 385 times. Moreover, in the data set on carotid artery [4], the “forskolin levels in vessel proximal to, overlying and distal to stent” value is “significant levels of forskolin”; the “radial and longitudinal diffusion” value was “diffusion gradient in both longitudinal and radial directions away from the stent”; the “washout from the vessel wall” value is on record as “rapid”. In addition, in the data set on carotid artery [4] (2 h), the “adventitia level in washout experiment, 2 hours” value is 1.7 ng/mg; the “media level in washout experiment, two hours” value is recorded as 1.2 ng FSK/mg tissue; the “other adjacent tissues level in washout experiment, two hours” value was less than 0.6 ng/mg. Moreover, in the data set on carotid artery [4] (24 h), the adventitia level came to 4.1±1.8 ng FSK/mg tissue; the “adventitia level in washout experiment, 24 hours” value amounted to 0.1 ng/mg; the “adventitia tissue to blood ratio” value is given as 61±18; the media level amounted to 4.9±1.2 ng/mg tissue. In the data set on carotid artery [4] (24 h), the “media level in washout experiment, 24 hours” value is 0.2 ng FSK/mg; the “media tissue to blood ratio” value worked out at 77±22; the “other adjacent tissues level in washout experiment, 24 hours” value is given as less than 0.1 ng/mg. For the same molecule, the “carotid artery flow at 1 min” value in the data set on carotid artery [5] (1 min after stent delivery, p<0.005) was found to be 15.9 ± 2.6 mL/min. Besides, in the data set on carotid artery [5] (60 min after stent delivery, p<0.0001), the “carotid artery flow at 60 min” value turned out to be 19.6 ± 4.4 mL/min. Moreover, in the data set with carotid artery [6] (compared to uncoated and coated stents), the “thrombosis of the stented segment” value was “prevented thrombosis of the stented segment”. In addition, in the data set on carotid artery [6] (forskolin impregnated into the polyurethane), the “effect on TCF and TTO” value is “remarkably increased the time to cyclic flow (TCF) and time to occlusion (TTO)”. The “Time to Cyclic Flow (TCF)” value with carotid artery [6] (n = 5, p < 0.0001 compared to coated and uncoated (uncoated 16 ± 13, polymer coated 27 ± 17)) is given as 208 ± 71 min. In addition, the “Time to Occlusion (TTO)” value with carotid artery [6] (n = 5, uncoated 19 ± 18, polymer coated 54 ± 27) is recorded as more than 240 min. Moreover, in the data set with carotid artery [6] (number of forskolin impregnated stents, n = 5), the “stents exhibiting cyclic carotid blood flow” value is “one”. In addition, the “visual inspection of thrombus” value in the data set on carotid artery [6] (uncoated: mixed red and white thrombus, coated: predominately white thrombus) was “red thrombus only; also recorded: Absence of platelet rich white thrombus”. For the same molecule, the “water solubility” value in [1] is given as “less soluble in aqueous solutions”. For the same molecule, in data set [2] (Stents, PBS, n = 3), the “Release Rate Day 1” value is 3.8 µg/h, the “Release Rate Day 2” value stood at 3.9 µg/h, the “Release Rate Day 3” value amounted to 1.6 µg/h and the Total came out at 4.4 mg. Further, in data set [2] (in vitro, compared with in vivo), the “in vitro release rate” value came out at 0.5 µg/min. In addition, the “initial release rate / release rate” value in [2] is “slower release rate”.
Regarding `CCOC(=O)/C=C(C)/C=C/C=C(C)/C=C/c1c(C)cc(OC)c(C)c1C` [Etretinate], in data set [7], the “elution rate from the polymer” value is “decreased elution rate from the polymer”, the “tissue retention” value is given as “increased tissue retention” and the “uptake by the polymer” value is reported as “increased uptake by the polymer”. In data set [8] (vessel wall), this molecule yielded a concentration at 72 h of 185000 ng/g. In [8] (vessel wall media), this molecule displayed a concentration at 24 h of 250000 ng/g.
Consider `CCN(CC)c1ccc2c(-c3ccccc3C(=O)O)c3ccc(=[N+](CC)CC)cc-3oc2c1` [Rhodamine B], for which, in data set [2] (Coil, PBS, n = 3), the “Release Rate Day 1” value worked out at 37.0 µg/h, the “Release Rate Day 2” value amounted to 5.2 µg/h and the Total is on record as 1.5 mg. Further, in [2], the “initial release rate / release rate” value is on record as “highest initial release rate”.
Regarding `O=C1OC2(c3ccc(O)cc3Oc3cc(O)ccc32)c2ccccc21` [Fluorescein disodium, fluorescein disodium], in data set [1], the “water solubility” value was “water soluble”. For the same molecule, in data set [2] (setting [10]), the “Release Rate Day 1” value was 16.0 µg/h, the “Release Rate Day 2” value was found to be 4.0 µg/h and the “Release Rate Day 3” value turned out to be 2.0 µg/h. Also, the Total in [2] (Film + SPH (sphingosine), n = 2) amounted to 1.1 mg. In data set [2] (setting [11]), the “Release Rate Day 1” value is 4.0 µg/h, the “Release Rate Day 2” value turned out to be 1.8 µg/h and the “Release Rate Day 3” value is 1.8 µg/h. In data set [2] (Film without sphingosine, n = 2), the Total worked out at 0.3 mg. In addition, the “total content and delivery rate” value in [2] (with the addition of sphingosine (SPH) to the matrix) was “improved total content; also recorded: subsequently higher delivery rate”.
As to heparin, the “thrombosis on the catheter” value in data set [9] is “sufficient to decrease thrombosis on the catheter”. In addition, the “intimal hyperplasia” value with intimal hyperplasia was “inhibited intimal hyperplasia”.
